Data reported in patent publication US20120004233A1, “TRICYCLIC COMPOUNDS AS ANTAGONISTS OF PROSTAGLANDIN D2 RECEPTORS” (AMIRA PHARMACEUTICALS, INC, priority 2009, published 2012).
pIC50: −log10 of the molar value. Like-named read-outs stand apart in the source and are kept apart here.

What was measured:
human DP2 receptor = biological target: T1, human DP2 receptor (Homo sapiens, UniProt Q9Y5Y4); assay: DP2/CRTH2 radioligand binding assay using [3H]PGD2; details: membranes of HEK293 cells expressing recombinant human DP2
T1 construct: expressed in transfected cells
T1 sequence (Q9Y5Y4 1-395): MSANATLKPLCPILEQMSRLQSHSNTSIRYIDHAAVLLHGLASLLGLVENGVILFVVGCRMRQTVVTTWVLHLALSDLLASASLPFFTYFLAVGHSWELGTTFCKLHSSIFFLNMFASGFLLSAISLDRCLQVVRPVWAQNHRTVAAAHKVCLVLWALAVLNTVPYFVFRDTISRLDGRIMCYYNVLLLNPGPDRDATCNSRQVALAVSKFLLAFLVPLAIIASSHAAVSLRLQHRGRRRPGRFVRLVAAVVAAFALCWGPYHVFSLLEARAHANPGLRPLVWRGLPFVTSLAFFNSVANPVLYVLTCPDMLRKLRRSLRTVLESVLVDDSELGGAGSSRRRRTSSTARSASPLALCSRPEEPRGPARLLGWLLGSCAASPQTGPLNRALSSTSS
Protocol: The ability of a compound to bind to the human DP2 receptor is assessed via a radioligand binding assay using [^3H]PGD2. HEK293 cells stably expressing recombinant human DP2 are resuspended in 10 mM Hepes, 7.4 containing 1 mM DTT, lysed and centrifuged at 75,000×g to pellet the membranes. The membranes are resuspended in 10 mM Hepes, 7.4 containing 1 mM DTT and 10% glycerol to approximately 5 mg protein/ml. Membranes (2-10 μg protein/well) are incubated in 96-well plates with 1 nM [^3H]PGD2 and test compound in Assay Buffer (50 mM Hepes, 10 mM MnCl2, 1 mM EDTA, plus or minus 0.2% human serum albumin, pH 7.4) for 60 minutes at room temperature. The reactions are terminated by rapid filtration through Whatman GF/C glass fibre filter plates. The filter plates were pre-soaked in 0.33% polythylenimine for 30 minutes at room temperature then washed in Wash Buffer (50 mM Hepes, 0.5 M NaCl pH 7.4) prior to harvesting. After harvesting, the filter plates are washed 3 times with 1 ml cold Wash Buffer then dried. Scintillant is then added to the plates and the radioactivity retained on the filters is determined on a Packard TopCount (Perkin Elmer). Specific binding is determined as total radioactive binding minus non-specific binding in the presence of 10 μM PGD2. IC50s were determined using GraphPad prism analysis of drug titration curves.

human DP1 receptor = biological target: T2, human DP1 receptor (Homo sapiens, UniProt Q13258); assay: DP1 radioligand membrane binding assay using [3H]BWA868C; details: human platelet membranes; read-out: hDP1
T2 construct: tissue Biological Specialty Corporation; host or cells: human platelets, membrane preparation
T2 sequence (Q13258 1-359): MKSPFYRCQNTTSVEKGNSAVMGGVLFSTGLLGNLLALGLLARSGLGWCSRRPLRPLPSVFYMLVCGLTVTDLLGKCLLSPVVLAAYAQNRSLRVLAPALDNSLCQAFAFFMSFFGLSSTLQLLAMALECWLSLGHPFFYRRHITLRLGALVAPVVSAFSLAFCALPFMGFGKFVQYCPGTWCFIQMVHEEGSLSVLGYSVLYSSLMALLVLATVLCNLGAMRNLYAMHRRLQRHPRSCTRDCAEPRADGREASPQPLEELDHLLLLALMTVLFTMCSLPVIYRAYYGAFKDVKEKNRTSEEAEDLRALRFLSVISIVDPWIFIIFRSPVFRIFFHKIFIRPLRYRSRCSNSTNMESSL
Protocol: The ability of a compound to bind to the human DP1 receptor is evaluated via a radioligand membrane binding assay using the DP1 selective synthetic ligand [^3H]BWA868C. Packed human platelets (Biological Specialty Corporation), are resuspended in 6 volumes of Hepes/HBSS buffer (10 mM Hepes, 1 mM DTT in Hanks Balanced Salt Solution (HBSS)), lysed and centrifuged at 75,000×g to pellet the membranes. Membranes are resuspended in Hepes/HBSS buffer to approximately 12 mg protein/ml. Membranes (20 μg protein/well) are incubated in 96-well plates with 2 nM [^3H]BWA868C and test compound in Assay Buffer (50 mM Hepes, 10 mM MnCl2, 1 mM EDTA, plus or minus 0.2% human serum albumin, pH 7.4) for 60 minutes at room temperature. The reactions are terminated by rapid filtration through Whatman GF/C glass fibre filter plates. The filter plates are pre-soaked in 0.33% polethylenimine for 30 minutes at room temperature then washed in Wash Buffer (50 mM Hepes, 0.5 M NaCl pH 7.4) prior to harvesting. […] Scintillant is then added to the plates and the radioactivity retained on the filters is determined on a Packard TopCount (Perkin Elmer). Specific binding is determined as total radioactive binding minus non-specific binding in the presence of 10 μM BW A868C. IC50 values are determined using GraphPad prism analysis of drug titration curves.

[1] = plus 0.2% human serum albumin, read-out: hDP2 μM (+HSA)
[2] = without human serum albumin, read-out: hDP2

pIC50 (human DP2 receptor; [1])	pIC50 (human DP2 receptor; [2])	pIC50 (human DP1 receptor)	SMILES
> 6.52	> 6.52	< 6.00	CN(C1CCc2c(c3ccccn3c2CC(=O)O)C1)S(=O)(=O)c1ccc(F)cc1 (stereo not drawn) [Compound 2-1, {9-[(4-Fluoro-benzenesulfonyl)-methyl-amino]-7,8,9,10-tetrahydro-pyrido[2,1-a]isoindol-6-yl}-acetic acid]
> 6.52	> 6.52	< 6.00	CN(C1CCc2c(CC(=O)O)c3ccccn3c2C1)S(=O)(=O)c1ccc(F)cc1 (stereo not drawn) [Compound 1-1, {3-[(4-Fluoro-benzenesulfonyl)-methyl-amino]-1,2,3,4-tetrahydro-pyrido[1,2-a]indol-10-yl}-acetic acid]
